# Laboratory results: patent US20230293680A1, “A COMPOSITION OF ANTI-DR5 ANTIBODIES AND AN IMMUNOMODULATORY IMIDE DRUG FOR USE IN TREATING MULTIPLE MYELOMA” (Genmab B.V., priority 2020, published 2023)
# Like-named read-outs stand apart in the source and are kept apart here.
# Experiments:
# [1] = single dose study by intravenous infusion, plasma PK (generic IgG ECLIA); settings: for Cmax / Tmax / Vd: group mean
# [2] = cynomolgus monkey, in vivo, iv
# NCI-H929 cells [3] = assay: cytotoxicity in NCI-H929 cells with healthy donor PBMCs; assay type: cell-based, human; settings: 20 μg/mL, 24 h, absence and presence of healthy donor PBMCs
# Protocol: FIG. 12: Inhibition of cell viability by HexaBody-DR5/DR5 in combination with lenalidomide on NCI-H929 cells in presence and absence of healthy donor peripheral blood mononuclear cells (PBMCs) in vitro. (A) Percentage kill of NCI-H929 cells by 20 μg/mL HexaBody-DR5/DR5 after a 24-hour incubation in the absence and presence of healthy donor PBMCs (n=6) in a 40:1 effector to target ratio. Mean and SD are shown. (ns) not significant (paired t-test). […] NCI-H929 cells were incubated with lenalidomide-exposed PBMCs and treated with lenalidomide and/or HexaBody-DR5/DR5 for an additional 24 h. Mean percentage kill and SD is shown. **p<0.005; ***p<0.0005 (paired t-test).
# To test possible indirect immunomodulatory effects of lenalidomide on HexaBody-DR5/DR5-mediated killing, PBMCs of healthy donors were preincubated with 3 μM lenalidomide for 5 days. Subsequently, NCI-H929 cells were incubated with 3 μM lenalidomide, lenalidomide-exposed PBMCs and/or 20 μg/mL HexaBody-DR5/DR5 for an additional 24 h.
# [4] = dose range finding study by intravenous infusion, plasma PK; assay type: in vivo, cynomolgus monkey; settings: 0.1, 0.5, 5 and 25 mg/kg IV
# SK-MES-1 = assay: three-day viability assay (CellTiter-Glo); assay type: cell-based, human; settings: SK-MES-1 NSCLC, 3 days
# Protocol: (§1) COLO 205 cancer cells were harvested by pooling the culture supernatant containing non-adherent cells and trypsinized adherent cells. The other cell lines were harvested by trypsinization. For trypsinization, adherent cells were incubated with Trypsin-EDTA (Gibco, Cat no 15400-054) diluted in PBS (B.Braun; Cat no 3623140) to a final concentration of 0.05% Trypsin for 2 minutes at 37° C. and passed through a cell strainer. Cells were pelleted by centrifugation for 5 minutes at 1,200 rpm and resuspended at a concentration of 0.5x10^5 cells/mL in culture medium.
# (§2) 100 μL of single cell suspensions (5,000 cells per well) were seeded in polystyrene 96-well flat-bottom plates (Greiner Bio-One, Cat no 655180) and allowed to adhere overnight at 37° C. The following day, 50 μL antibody samples (0.002-133 nM final concentrations in 4-fold dilutions) were added to the adherent cells and incubated for 3 days at 37° C. As a positive control in all viability assays, cells were incubated with 5 μM staurosporine (Sigma Aldrich, Cat no S6942), and untreated cells were included as the negative control. The viability of the cultured cells was determined in a CellTiter-Glo Luminescent Cell Viability Assay (Promega, Cat no G7571) that quantifies the presence of ATP, which is an indicator of metabolically active cells. From the kit, 15 μL Luciferin Solution Reagent was added to each well of the viability assay plate. Next, plates were incubated for 1.5 hours at 37° C. 100 μL supernatant was transferred to a white OptiPlate-96 (Perkin Elmer, Cat no 6005299) and luminescence was measured on an EnVision Multilabel Reader (PerkinElmer). Data were analyzed and plotted using non-linear regression (sigmoidal dose-response with variable slope) using GraphPad Prism software. The percentage viable cells was calculated using the following formula: % viable cells=[(luminescence antibody sample−luminescence staurosporine sample)/(luminescence no antibody sample−luminescence staurosporine sample)]×100.
# A375 = assay: three-day viability assay (CellTiter-Glo); assay type: cell-based, human; settings: A375 melanoma, 3 days
# Protocol: as §1, §2
# PANC-1 = assay: three-day viability assay (CellTiter-Glo); assay type: cell-based, human; settings: PANC-1 pancreatic, 3 days
# Protocol: as §1, §2
# HCT-15 = assay: three-day viability assay (CellTiter-Glo); assay type: cell-based, human; settings: HCT-15 CRC, 3 days
# Protocol: as §1, §2
# BxPC-3 = assay: three-day viability assay (CellTiter-Glo); assay type: cell-based, human; settings: BxPC-3 pancreatic, 3 days
# Protocol: as §1, §2
# COLO 205 = assay: three-day viability assay (CellTiter-Glo); assay type: cell-based, human; settings: COLO 205 CRC, 3 days
# Protocol: as §1, §2
# SNU-5 = assay: three-day viability assay (CellTiter-Glo); assay type: cell-based, human; settings: SNU-5 gastric, 3 days
# Protocol: as §1, §2
# [5] = repeat-dose toxicity study, 5 weekly IV infusions (toxicokinetics, NOAEL/HNSTD)
# primary MM cells [6] = assay: 24-hour ex vivo viability assay with BMNCs of MM patients, flow cytometry; assay type: cell-based, human; settings: 20 μg/mL
# [7] = tested on: colorectal cancer PDX model CR3056; assay: in vivo anti-tumor activity, PDX model; design: species or system mice
# Protocol: (§3) Immunodeficient 8-13 weeks old female BALB/c athymic nude mice (Beijing HFK Bio-Technology Co. Ltd.) or nu/nu mice (Vital River Laboratories Research Models and Services) were inoculated subcutaneously at the right flank with one tumor fragment (2-3 mm diameter) derived from colorectal cancer PDX model CR0126 or CR3056 at CrownBio, Beijing, China. Earmarks were placed for mouse identification. Tumor volumes were measured at least twice per week using a digital caliper (PLEXX). Tumor volumes (mm^3) were calculated as follows: tumor volume=0.5×(length)×(width)^2. When the mean tumor size reached ˜200 mm^3, mice were divided into groups of 8 mice each, with equal tumor size distribution (average and variance). Mice were treated QW×2 by IV injection of 10 μL IgG1-DR5-01-G56T-E430G+IgG1-DR5-05-E430G per gram body weight: 0.2 mg/mL (2 mg/kg) or 0.05 mg/mL (0.5 mg/kg). For each model, statistical analysis was performed on the last day that all groups were intact.
# [8] = tested on: colorectal cancer PDX model CR0126; assay: in vivo anti-tumor activity, PDX model; design: species or system mice; settings: 2 mg/kg QWx2 IV; Mann-Whitney p<0.0379
# Protocol: as §3
# CDX and PDX mouse models = assay: in vivo anti-tumor response in CDX and PDX mouse models (overall)
# Protocol: Therefore, the FIH starting dose of 0.3 mg/kg was considered to be in the lower end of a potential therapeutic dose-range in human patients.
# [9] = nonclinical immune agonism / cytokine release assessment
# human cancer cell lines = assay: viability assays in various human cancer cell lines (overall); assay type: cell-based
# Protocol: as §1, §2
# NCI-H929 cells [10] = assay: viability of lenalidomide-preincubated NCI-H929 cells; assay type: cell-based, human; settings: NCI-H929 cells preincubated 5 days with 3 μM lenalidomide
# Protocol: FIG. 11: Percentage inhibition of viability of lenalidomide-preincubated NCI-H929 cells by HexaBody-DR5/DR5, lenalidomide and the combination thereof. […] Graphs show the mean and SD of duplicate measurements from a representative experiment (n=3).
# primary MM cells [11] = settings: 3 μM, 24 h viability assays on primary MM cells ex vivo
# [12] = 1QWx5 IV dosing, GLP toxicity study
# [13] = newly diagnosed (ND) patient samples
# [14] = relapsed and/or refractory (RR) patient samples
# [15] = median over the seven cell lines with >40% max inhibition
compound,measurement,setting,value
"HexaBody-DR5/DR5: 1:1 mixture of IgG1-hDR5-01-G56T-E430G and IgG1-hDR5-05-E430G, two non-competing humanized anti-human DR5 IgG1 antibodies",Cmax,[1]; 0.5 mg/kg single IV,16.7 µg/mL
same,Tmax,[1]; 0.5 mg/kg single IV,1 h
same,Vd,[1]; 0.5 mg/kg single IV,0.0635 L/kg
same,Cmax,[1]; 5 mg/kg single IV,135.0 µg/mL
same,Tmax,[1]; 5 mg/kg single IV,1 h
same,Vd,[1]; 5 mg/kg single IV,0.0726 L/kg
same,Cmax,[1]; 25 mg/kg single IV,470.3 µg/mL
same,Tmax,[1]; 25 mg/kg single IV,3.36 h
same,Vd,[1]; 25 mg/kg single IV,0.091 L/kg
same,"increase in exposure with increasing dose, based on nAUC0-∞",[1]; 0.5 to 25 mg/kg,more or less proportional increase in exposure
same,"increase in exposure, based on nCmax",[1]; between 5 and 25 mg/kg,less than proportional increase in exposure
same,"increase in exposure, based on nCmax",[1]; up to a dose of 5 mg/kg,proportional increase in exposure
same,AUC0-∞ (μg · day/· mL^−1),[2]; 0.5 mg/kg,40.3 μg · day/· mL^−1
same,CL (mL · day^−1/· kg^−1),[2]; 0.5 mg/kg,12.6 mL · day^−1/· kg^−1
same,T1/2,[2]; 0.5 mg/kg,83.5 h
same,nCmax (μg · mL^−1/mg · kg^−1),[2]; 0.5 mg/kg,33.5 μg · mL^−1/mg · kg^−1
same,AUC0-∞ (μg · day/· mL^−1),[2]; 5 mg/kg,452.6 μg · day/· mL^−1
same,CL (mL · day^−1/· kg^−1),[2]; 5 mg/kg,11.4 mL · day^−1/· kg^−1
same,T1/2,[2]; 5 mg/kg,110 h
same,nCmax (μg · mL^−1/mg · kg^−1),[2]; 5 mg/kg,27.0 μg · mL^−1/mg · kg^−1
same,AUC0-∞ (μg · day/· mL^−1),[2]; 25 mg/kg,2748 μg · day/· mL^−1
same,CL (mL · day^−1/· kg^−1),[2]; 25 mg/kg,9.10 mL · day^−1/· kg^−1
same,T1/2,[2]; 25 mg/kg,166 h
same,nCmax (μg · mL^−1/mg · kg^−1),[2]; 25 mg/kg,18.8 μg · mL^−1/mg · kg^−1
same,effect of FcγR-mediated crosslinking on cytotoxicity,NCI-H929 cells [3],did not increase
same,"increase in exposure with increasing dose, based on nCmax and nAUC0-∞",[4],proportional increase in exposure
same,target-mediated clearance (plasma concentration-time profiles),[4]; single or repeated dose,no indications of target-mediated clearance
same,Average IC20,SK-MES-1,0.086 µg/mL
same,IC20,SK-MES-1,0.572 nM
same,Max inhibition %,SK-MES-1,76.6%
same,Average IC20,A375,0.067 µg/mL
same,IC20,A375,0.445 nM
same,Max inhibition %,A375,54.6%
same,Average IC20,PANC-1,0.083 µg/mL
same,IC20,PANC-1,0.554 nM
same,Max inhibition %,PANC-1,61.0%
same,Average IC20,HCT-15,0.104 µg/mL
same,IC20,HCT-15,0.692 nM
same,Max inhibition %,HCT-15,66.7%
same,Average IC20,BxPC-3,0.102 µg/mL
same,IC20,BxPC-3,0.677 nM
same,Max inhibition %,BxPC-3,89.4%
same,Average IC20,COLO 205,0.015 µg/mL
same,IC20,COLO 205,0.103 nM
same,Max inhibition %,COLO 205,99.6%
same,Average IC20,SNU-5,0.041 µg/mL
same,IC20,SNU-5,0.274 nM
same,Max inhibition %,SNU-5,44.7%
same,HNSTDcyno,[5]; [12],50 mg/kg
same,NOAELcyno,[5]; [12],50 mg/kg
same,MRSDhuman (=NOAELcyno/6),[5]; converted from cynomolgus NOAEL/HNSTD,8.3 mg/kg
same,median lysis of MM cells,primary MM cells [6]; RR patients under treatment or last treatment shorter than 1 month before BM biopsy,62%
same,median lysis of MM cells,primary MM cells [6]; RR patients with last exposure to therapy >1 month before BM biopsy,23%
same,median lysis of MM cells,primary MM cells [6]; [13],19%
same,range of lysis of MM cells,primary MM cells [6]; [13],3-69%
same,median lysis of MM cells,primary MM cells [6]; [14],43%
same,range of lysis of MM cells,primary MM cells [6]; [14],0-86%
same,tumor growth inhibition,"[7]; 0.5 mg/kg QWx2 IV, Mann-Whitney p<0.0379",significant tumor growth inhibition
same,tumor growth inhibition,"[7]; 2 mg/kg QWx2 IV, Mann-Whitney p<0.0003",significant tumor growth inhibition
same,tumor growth inhibition,[8],significant tumor growth inhibition
same,In vivo anti-tumor response in CDX and PDX mouse models,CDX and PDX mouse models; dose giving full response,2 mg/kg
same,In vivo anti-tumor response in CDX and PDX mouse models,CDX and PDX mouse models; dose giving partial response,0.5 mg/kg
same,hazard of acute cytokine-releasing activity,[9],no hazard of acute cytokine-releasing activity has been identified
same,immune agonistic properties,[9],no immune agonistic properties
same,maximal inhibition of viability,human cancer cell lines; in seven of the twelve cell lines tested,more than 40%
same,IC20,human cancer cell lines; [15],0.554 nM
same,Overall Median IC20,human cancer cell lines; [15],0.083 µg/mL
Nc1cccc2c1CN(C1CCC(=O)NC1=O)C2=O (stereo not drawn) [lenalidomide],effect of preincubation on HexaBody-DR5/DR5-mediated kill,NCI-H929 cells [10],no direct effect
same,single agent activity,primary MM cells [11],no single agent activity
